We go through two compounds from patent publication EP2116263A1, “Reversibly light-switchable drug-conjugates” (priority 2008, dated 2009).

Entries after “also recorded” stand apart in the source; their conditions may differ. Where two headings read alike, the source gives them in different places.

Data set [1] concerns the target Recombinant hCyp18 PPIase activity (Homo sapiens, UniProt P62937). The data set can be described thus: Cyp18 PPIase activity, protease coupled assay. The data set is classed as biochemical. The protocol: The PPIase activity was measured at 7 °C with a protease coupled assay on a Hewlett-Packard 8452a diode array spectrophotometer (Fischer et al., 1984). To 1220 µl Hepes buffer pH 7.8, Cyp18 and inhibitor of desired concentration are added. After 10 min of incubation, protease and substrate were added. The final substrate concentration is 40 µM in 1280 µl. The cis/trans isomerization was monitor at 390 nm with 510 nm as a reference. The rate is calculated according to first order reaction. Recombinant hCyp18 PPIase activity was measured with the peptide Suc-Ala-Phe-Pro-Phe-NH-Np as substrate. The substrate was dissolved in DMSO (10 mg/ml). α-Chymotrypsin was used as auxiliary protease. The residual enzymatic activity was plotted versus the inhibitor concentration and used for calculating the inhibitor constants Ki as described before (Schutkowski et al., 1995).
PPIase activities are measured with a protease coupled assay, using Suc-Ala-Phe-Pro-Phe-NH-Np as substrate and chymotrypsin as auxiliary protease, in 35 mM HEPES buffer pH 7.8, at 7 °C. Cyp18 concentration is 2.5 nM. […] Irradiations have been performed with light of 740 nm for 45 min. […]

For a further data set, the system named is CaN and Cyp18. The data set can be described thus: Cross-linking (BS3) of CaN and Cyp18 in treated Jurkat cells, anti-CaN blot. The data set is classed as cell-based, human.
Data set [2] deals with calcineurin (CaN) phosphatase activity (Homo sapiens, UniProt P62937+P63098+Q08209). The data set is described as follows: Calcineurin (CaN) phosphatase activity inhibition assay in the presence of Cyp18. The conditions noted are these: for change of CaN inhibition between cis and trans forms / upon light irradiation: in the presence of Cyp18, absence of SA. The protocol:
The reaction mixture containing 700 µM peptide, 0.2 µM cAMP, 100 µCi[γ-^33P]ATP and 10 kU PKA in a final volume of 100 µl in the buffer (containing 20 mM MES, pH 6.5, 0.4 mM EDTA, 0.2 mM EGTA, 50 µM CaCl2 and 2 mM MgCl2) was incubated for one hour at 30 °C. The phosphorylated peptides were separated from unincorporated labeled ATP by 1 ml RP-C2 clean up extraction column (Amchro, Sulzbach, Germany). The eluted peptide (with 70% acetonitrile) was lyophilized and reconstituted with de-ionized water.
The scintillation proximity concept has been applied for measuring calcineurin activity using ScintiPlate wells coated with streptavidin. […] Biotinylated [γ-^33P] RII peptide was added to a final concentration of 100 nM and the total assay volume is 100 µl. After incubation at 30 °C for 30 min, 90 µl of the reaction mixture was transferred to the ScintiPlate well coated with streptavidin. The streptavidin immobilizes the biotinylated RII peptide on the wells. After 20 min at 22 °C the well was washed once with water and the RII associated [γ-^33P] was measured in the top-counter MicroBeta (Wallac, Turku, Finland).

For data set [3], the target named is Cyp18/CsA-AB-CsA/Cyp18 tertiary complex (Homo sapiens, UniProt P62937). The data set is described as follows: Coprecipitation of His4-Cyp18 with GST-Cyp18 matrix on glutathione-Sepharose. The data set is classed as binding.
Cyp18/CsA-AB-CsA/Cyp18 tertiary complex, sequence (P62937 whole entry, one chain of several): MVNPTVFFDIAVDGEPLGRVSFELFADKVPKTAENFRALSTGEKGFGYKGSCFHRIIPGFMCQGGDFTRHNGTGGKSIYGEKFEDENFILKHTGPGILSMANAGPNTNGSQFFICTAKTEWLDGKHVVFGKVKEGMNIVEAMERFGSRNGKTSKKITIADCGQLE
Description: The proteins were eluted by boiling with sample buffer and separated by SDS-PAGE, transferred onto nitrocellulose membrane and probed with anti-His and anti-GST antibodies.

Recombinant hCyp18 PPIase activity, sequence (P62937 whole entry): as the sequence (P62937 whole entry, one chain of several) above
Protocol for CaN and Cyp18: Cells were lysed and the clear supernatants were incubated with calmodulin sepharose. Cross-linking reagent BS^3 was added to the EDTA eluates. After TCA precipitation, the samples were separated by SDS-PAGE and probed with anti-CaN antibody and detected by enhanced chemiluminescent reaction.

On to `C/C=C/C[C@@H](C)[C@@H](O)[C@H]1C(=O)N[C@@H](CC)C(=O)N(C)CC(=O)N(C)[C@@H](CC(C)C)C(=O)N[C@@H](C(C)C)C(=O)N(C)[C@@H](CC(C)C)C(=O)N[C@@H](C)C(=O)N[C@H](COCC(=O)Nc2ccc(N=Nc3ccc(NC(=O)CCCC[C@@H]4SC[C@@H]5NC(=O)N[C@@H]54)cc3)cc2)C(=O)N(C)[C@@H](CC(C)C)C(=O)N(C)[C@@H](CC(C)C)C(=O)N(C)[C@@H](C(C)C)C(=O)N1C` [CsA-AB-Biotin], for which the half-inhibitory concentration (IC50) is 4.45 ± 0.55 nM in data set [1] (IC50, inhibition of Cyp18 PPIase activity, cis isomer bound to the borrowed protein SA (4 equivalents)); 2.21 ± 0.02 nM in data set [1] (IC50, inhibition of Cyp18 PPIase activity, irradiated, cis, absence of SA, Cyp18 2.5 nM, 7 °C); 2.96 ± 0.68 nM in data set [1] (IC50, inhibition of Cyp18 PPIase activity, non-irradiated, trans, absence of SA, Cyp18 2.5 nM, 7 °C); 9.37 ± 0.75 nM in data set [1] (IC50, inhibition of Cyp18 PPIase activity, trans isomer bound to the borrowed protein SA (4 equivalents)). For the same compound, the “cross-linking between CaN and Cyp18” value is recorded as “intensive cross-linking” in the data set with CaN and Cyp18 (absence of SA, conjugate in photoswitched cis form); “weakest cross-linking effect” with CaN and Cyp18 (cells transfected with SA, non-irradiated trans). Moreover, in the data set on CaN and Cyp18 (cells transfected with SA, cis), the “cross-linked CaN-Cyp18-SA” value is given as “detected only in sample treated with cis-CsA-AB-Biotin; also recorded: can only be detected in samples treated with cis-CsA-AB-Biotin”. In addition, in the data set on CaN and Cyp18 (cells transfected with SA, trans), the “interaction of the Cyp18-trans-CsA-AB-Biotin-SA complex with CaN” value is on record as “does not interact with CaN”. Also, in data set [2] (absence of SA), the “trans/cis difference of activity in CaN inhibition assay” value amounted to 1.4. Moreover, the “change of CaN inhibition between cis and trans forms / upon light irradiation” value in data set [2] is given as “only a minor change”. Besides, the “IC50, CaN inhibition” value in data set [2] (non-irradiated (trans), in the presence of SA) is given as “too high to be determined precisely”. Also, in data set [2] (read-out: CaN inhibition), the inhibition at 10 µM worked out at 30%.
In the case of `C/C=C/C[C@@H](C)[C@@H](O)[C@H]1C(=O)N[C@@H](CC)C(=O)N(C)CC(=O)N(C)[C@@H](CC(C)C)C(=O)N[C@@H](C(C)C)C(=O)N(C)[C@@H](CC(C)C)C(=O)N[C@@H](C)C(=O)N[C@H](COCC(=O)Nc2ccc(N=Nc3ccc(NC(=O)COC[C@H]4NC(=O)[C@H](C)NC(=O)[C@H](CC(C)C)N(C)C(=O)[C@H](C(C)C)NC(=O)[C@H](CC(C)C)N(C)C(=O)CN(C)C(=O)[C@H](CC)NC(=O)[C@H]([C@H](O)[C@H](C)C/C=C/C)N(C)C(=O)[C@H](C(C)C)N(C)C(=O)[C@H](CC(C)C)N(C)C(=O)[C@H](CC(C)C)N(C)C4=O)cc3)cc2)C(=O)N(C)[C@@H](CC(C)C)C(=O)N(C)[C@@H](CC(C)C)C(=O)N(C)[C@@H](C(C)C)C(=O)N1C` [CsA-AB-CsA], the “increase of inhibitory potency towards the PPIase activity of Cyp18, cis compared to trans” value in data set [1] (irradiated cis vs non-irradiated trans) is 7 fold. The “Cyp18 inhibitory profile after thermal cis to trans isomerization” value in data set [1] (irradiated sample kept in darkness overnight at room temperature) is “reversed”. Further, the IC50 in data set [1] (irradiated, cis, absence of SA, Cyp18 2.5 nM, 7 °C, read-out: IC50, inhibition of Cyp18 PPIase activity) was 30 ± 3 nM; in data set [1] (non-irradiated, trans, absence of SA, Cyp18 2.5 nM, 7 °C, read-out: IC50, inhibition of Cyp18 PPIase activity), 206 ± 22 nM. The “coprecipitation of His4-Cyp18 with GST-Cyp18” value in data set [3] (photoswitched cis (irradiated)) was “coprecipitated together with GST-Cyp18”; in data set [3] (trans (non-irradiated)), “only a minor amount”. Moreover, the “change of CaN inhibition between cis and trans forms / upon light irradiation” value in data set [2] was “significant increase”.
